Source: patent US20200085776A1, “Methods of Reducing C-Reactive Protein and/or Treating Cardiovascular Disease” (CARDAX, INC., priority 2018, published 2020)

Tested on: C-reactive protein (CRP)
Assay: CRP (hs-CRP) in blood, CHASE clinical study
Type: in vivo, human
Settings: Group Z 48 mg BID; for CRP Max / CRP Mean (SD) / CRP Median / CRP Min: V6 Week 12
Text: This is a two-part study comprising Part I and Part II. Following screening, Part I consists of a randomized, double-blind, placebo controlled dosing period of up to 12 weeks. The study shall be conducted at one or more study sites in Hawaii. Approximately 360 subjects qualified after completion of screening procedures shall be randomized in a 1:1:1 ratio to one of three treatment groups, per Table 1.
The Part I 12-week double-blind dosing period commences with V2, including randomization and first dose of study product, and continues with study visits at Week 1-2 (V3), Week 4 (V4), Week 8 (V5), and Week 12 (V6). V6 procedures will conclude Part I.
Blood shall be obtained at each visit for CRP. The screening specimen shall be processed at the local lab and reported to the study staff for eligibility determination; CRP samples at V7 and V8 may also be processed locally and reported directly to study staff. Samples for CRP from V2 through V6 may be batched, processed, and reported as specified in the Laboratory Manual.
At each these visits, blood was obtained for measurement of CRP, among other parameters. Table 7A provides a summary of the CRP measurements (mg/L) at each visit and Table 7B provides a summary of the differences of CRP levels between V2 and V6.

[1] = subjects with DM2, hypertension and hyperlipidemia but not CAD
[2] = subjects with Diabetes Mellitus Type II
[3] = subjects with baseline level greater than 2.0
[4] = baseline to Week 12, all subjects
[5] = baseline to Week 12, subjects not taking a hypertension agent
[6] = baseline to Week 12, subjects not taking any cardiac therapeutic agent
[7] = baseline to Week 12, subjects not taking statins
[8] = baseline to Week 12, subjects taking an anti-diabetic agent
[9] = baseline to Week 12, subjects with CAD
[10] = baseline to Week 12, subjects with DM2, hypertension and hyperlipidemia but not CAD
[11] = baseline to Week 12, subjects with Diabetes Mellitus Type II
[12] = baseline to Week 12, subjects with baseline level greater than 2.0
[13] = baseline to Week 12, subjects with hyperlipidemia

CC1=C(/C=C/C(C)=C/C=C/C(C)=C/C=C/C=C(C)/C=C/C=C(C)/C=C/C2=C(C)C(=O)C(O)CC2(C)C)C(C)(C)CC(O)C1=O (stereo not drawn) [Astaxanthin, astaxanthin] was tested, and the “CRP Max” value [1] was 6.14 mg/L, the “CRP Mean (SD)” value [1] was 3.38 (1.57) mg/L and the “CRP Median” value [1] was 2.58 mg/L. For the same compound, the “CRP Min” value [1] was 2.48 mg/L, the “CRP Max” value [2] was 8.84 mg/L and the “CRP Mean (SD)” value [2] was 3.77 (2.70) mg/L. The “CRP Median” value [2] was 2.56 mg/L, the “CRP Min” value [2] was 0.61 mg/L and the “CRP Max” value [3] was 8.84 mg/L. The “CRP Mean (SD)” value [3] was 3.88 (2.42) mg/L, the “CRP Median” value [3] was 2.89 mg/L and the “CRP Min” value [3] was 0.61 mg/L. For the same compound, the “CRP Max” value (subjects with hyperlipidemia) was 6.14 mg/L, the “CRP Mean (SD)” value (subjects with hyperlipidemia) was 2.54 (1.29) mg/L and the “CRP Median” value (subjects with hyperlipidemia) was 2.31 mg/L. The “CRP Min” value (subjects with hyperlipidemia) was 0.61 mg/L, the “CRP V2 to V6 % Change Max” value [4] was 81.89% and the “CRP V2 to V6 % Change Mean” value [4] was −8.48%. The “CRP V2 to V6 % Change Median” value [4] was −27.9%, the “CRP V2 to V6 % Change Min” value [4] was −90.9% and the “CRP V2 to V6 Change Max” value [4] was 2.58 mg/L. For the same compound, the “CRP V2 to V6 Change Mean” value [4] was -0.87 mg/L, the “CRP V2 to V6 Change Median” value [4] was -0.65 mg/L and the “CRP V2 to V6 Change Min” value [4] was -6.07 mg/L. For the same compound, the “CRP V2 to V6 % Change Max” value [5] was −4.25%, the “CRP V2 to V6 % Change Mean (SD)” value [5] was −30.8 (26.09) % and the “CRP V2 to V6 % Change Median” value [5] was −31.8%. For the same compound, the “CRP V2 to V6 % Change Min” value [5] was −56.4%, the “CRP V2 to V6 Change Max” value [5] was -0.11 mg/L and the “CRP V2 to V6 Change Mean (SD)” value [5] was −1.58 (1.32) mg/L. For the same compound, the “CRP V2 to V6 Change Median” value [5] was -2.00 mg/L, the “CRP V2 to V6 Change Min” value [5] was -2.64 mg/L and the “CRP V2 to V6 % Change Max” value [6] was 71.27%. For the same compound, the “CRP V2 to V6 % Change Mean (SD)” value [6] was −23.7 (41.82) %, the “CRP V2 to V6 % Change Median” value [6] was −31.5% and the “CRP V2 to V6 % Change Min” value [6] was −90.9%. The “CRP V2 to V6 Change Max” value [6] was 1.29 mg/L, the “CRP V2 to V6 Change Mean (SD)” value [6] was −1.42 (2.01) mg/L and the “CRP V2 to V6 Change Median” value [6] was -1.24 mg/L. For the same compound, the “CRP V2 to V6 Change Min” value [6] was -6.07 mg/L, the “CRP V2 to V6 % Change Max” value [7] was 19.13% and the “CRP V2 to V6 % Change Mean (SD)” value [7] was −14.9 (28.11) %. The “CRP V2 to V6 % Change Median” value [7] was −17.6%, the “CRP V2 to V6 % Change Min” value [7] was −56.4% and the “CRP V2 to V6 Change Max” value [7] was 0.80 mg/L. For the same compound, the “CRP V2 to V6 Change Mean (SD)” value [7] was −0.81 (1.42) mg/L, the “CRP V2 to V6 Change Median” value [7] was -0.71 mg/L and the “CRP V2 to V6 Change Min” value [7] was -2.64 mg/L. The “CRP V2 to V6 % Change** Max” value [8] was 81.89%, the “CRP V2 to V6 % Change** Mean (SD)” value [8] was −16.9 (49.24) % and the “CRP V2 to V6 % Change** Median” value [8] was −30.7%. For the same compound, the “CRP V2 to V6 % Change** Min” value [8] was −90.9%, the “CRP V2 to V6 Change Max” value [8] was 2.58 mg/L and the “CRP V2 to V6 Change Mean (SD)” value [8] was −1.18 (2.36) mg/L. For the same compound, the “CRP V2 to V6 Change Median” value [8] was -1.14 mg/L, the “CRP V2 to V6 Change Min” value [8] was -6.07 mg/L and the “CRP V2 to V6 % Change Max” value [9] was 81.89%. The “CRP V2 to V6 % Change Mean (SD)” value [9] was −28.8 (65.35) %, the “CRP V2 to V6 % Change Median” value [9] was −39.7% and the “CRP V2 to V6 % Change Min” value [9] was −90.9%. The “CRP V2 to V6 Change Max” value [9] was 1.04 mg/L, the “CRP V2 to V6 Change Mean (SD)” value [9] was −1.91 (2.67) mg/L and the “CRP V2 to V6 Change Median” value [9] was -1.24 mg/L. For the same compound, the “CRP V2 to V6 Change Min” value [9] was -6.07 mg/L, the “CRP V2 to V6 % Change Max” value [10] was −4.25% and the “CRP V2 to V6 % Change Mean (SD)” value [10] was −32.6 (18.99) %. The “CRP V2 to V6 % Change Median” value [10] was −30.7%, the “CRP V2 to V6 % Change Min” value [10] was −50.4% and the “CRP V2 to V6 Change Max” value [10] was -0.11 mg/L. The “CRP V2 to V6 Change Mean (SD)” value [10] was −1.87 (1.24) mg/L, the “CRP V2 to V6 Change Median” value [10] was -2.37 mg/L and the “CRP V2 to V6 Change Min” value [10] was -3.24 mg/L. For the same compound, the “CRP V2 to V6 % Change Max” value [11] was 81.89%, the “CRP V2 to V6 % Change Mean (SD)” value [11] was −14.7 (47.59) % and the “CRP V2 to V6 % Change Median” value [11] was −29.3%. For the same compound, the “CRP V2 to V6 % Change Min” value [11] was −90.9%, the “CRP V2 to V6 Change Max” value [11] was 2.58 mg/L and the “CRP V2 to V6 Change Mean (SD)” value [11] was −1.01 (2.32) mg/L. The “CRP V2 to V6 Change Median” value [11] was -0.90 mg/L, the “CRP V2 to V6 Change Min” value [11] was -6.07 mg/L and the “CRP V2 to V6 % Change Max” value [12] was 48.77%. The “CRP V2 to V6 % Change Mean (SD)” value [12] was −24.8 (35.03) %, the “CRP V2 to V6 % Change Median” value [12] was −31.1% and the “CRP V2 to V6 % Change Min” value [12] was −90.9%. For the same compound, the “CRP V2 to V6 Change Max” value [12] was 2.58 mg/L, the “CRP V2 to V6 Change Mean (SD)” value [12] was −1.37 (2.11) mg/L and the “CRP V2 to V6 Change Median” value [12] was -1.54 mg/L. The “CRP V2 to V6 Change Min” value [12] was -6.07 mg/L, the “CRP V2 to V6 % Change Max” value [13] was 81.89% and the “CRP V2 to V6 % Change Mean (SD)” value [13] was −13.6 (49.58) %. For the same compound, the “CRP V2 to V6 % Change Median” value [13] was −30.7%, the “CRP V2 to V6 % Change Min” value [13] was −90.9% and the “CRP V2 to V6 Change Max” value [13] was 1.29 mg/L. For the same compound, the “CRP V2 to V6 Change Mean (SD)” value [13] was −1.24 (1.95) mg/L, the “CRP V2 to V6 Change Median” value [13] was -1.14 mg/L and the “CRP V2 to V6 Change Min” value [13] was -6.07 mg/L.
